Laboratory results from patent US7579371B2, “Methods of using [3.2.0] heterocyclic compounds and analogs thereof” (Nereus Pharmaceuticals, Inc., priority 2004, dated 2009).
Several values for one entry are separate records, joined by “and”; a condition that tells them apart may be missing. Identical values can stand only once. Like-named read-outs stand apart in the source and are kept apart here.

How the values were obtained:
HEK293 = assay: Cell growth inhibition assay (resazurin, 48 h); format: cell-based; conditions: Homo sapiens, HEK293, 48 h
HT-29 = assay: Cell growth inhibition assay (resazurin, 48 h); format: cell-based, human; conditions: HT-29, 48 h
Method: (§1) RPMI 8226 (CCL-155), HT-29 (HTB-38), and B16-F10 (CRL-6475) cells were purchased from ATCC. RPMI 8226 cells were maintained in RPMI 1640 media supplemented with 10% (v/v) FBS, 2 mM L-glutamine, 1 mM sodium pyruvate and Penicillin/Streptomycin at 100 IU/ml and 100 μg/ml, respectively. HT-29 cells were maintained in McCoys 5A supplemented with 10% (v/v) FBS, 2 mM L-glutamine, 1 mM sodium pyruvate, 1% (v/v) non-essential amino acids, 10 mM HEPES and Penicillin/Streptomycin at 100 IU/ml and 100 μg/ml, respectively. B16-F10 cells were maintained in DMEM supplemented with 10% (v/v) FBS, 2 mM L-glutamine, 10 mM HEPES and Penicillin/Streptomycin at 100 IU/ml and 100 μg/ml, respectively.
(§2) RPMI 8226 cells were seeded at 2×10^4 cells/well in 90 μl RPMI media containing 10% (v/v) FBS or 1% (v/v) FBS into 96 well black-walled, clear-bottom tissue culture plates. […] Formulae II-16, II-17 and Formula II-18 were serially diluted in media containing 1% or 10% FBS and added in triplicate to the test wells. […] The final concentration of Formula II-18 ranged from 2 μM to 630 pM.

MIA PaCa-2 = assay: Cell growth inhibition assay (resazurin, 48 h); format: cell-based; conditions: Homo sapiens, MIA PaCa-2, 48 h
RPMI 8226 = assay: Cell growth inhibition assay (resazurin, 48 h); conditions: for % cytotoxicity: RPMI 8226
Method: as §1, §2

CCD-27sk = assay: Cytotoxic activity, 48 h, normal human fibroblasts; format: cell-based
MES-SA = assay: Cell growth inhibition assay (resazurin, 48 h); format: cell-based, human
MES-SA/Dx5 = assay: Cell growth inhibition assay (resazurin, 48 h)
Method: Concentrations ranging from 6.32 μM to 2 nM were tested for II-2 and II-4.
The multidrug resistant MES-SA/Dx5 tumor cell line was derived from the human uterine sarcoma MES-SA tumor cell line and expresses elevated P-Glycoprotein (P-gp), an ATP dependent efflux pump.

[1] = target: T1, human erythrocyte 20S proteasomes, chymotrypsin-like activity (Homo sapiens, UniProt P28074); assay: Chymotrypsin-like activity of human erythrocyte 20S proteasomes; format: biochemical
T1 construct: Human erythrocyte 20S proteasomes were obtained from BIOMOL (Cat. # SE-221); purchased BIOMOL SE-221; host or cells: human erythrocytes

CYP1A2 = CYP1A2 (Homo sapiens, UniProt P05177); assay: Preliminary P450 inhibition screen; conditions: tested at 10 μM
Excerpt: (§3) These studies consisted of solubility assessment, LogD^7.4 determination and a preliminary screen to detect cytochrome P450 enzyme inhibition.

CYP2C19 = CYP2C19 (Homo sapiens, UniProt P33261); assay: Preliminary P450 inhibition screen; conditions: tested at 10 μM
Excerpt: as §3

CYP2C9 = CYP2C9 (Homo sapiens, UniProt P11712); assay: Preliminary P450 inhibition screen; conditions: tested at 10 μM
Excerpt: as §3

CYP2D6 = CYP2D6 (Homo sapiens, UniProt P10635); assay: Preliminary P450 inhibition screen; conditions: tested at 10 μM
Excerpt: as §3

CYP3A4 = CYP3A4 (Homo sapiens, UniProt P08684); assay: Preliminary P450 inhibition screen; conditions: tested at 10 μM
Excerpt: as §3

IκBα = assay: Western blot of total and phosphorylated IκBα, HEK293 and NF-κB/Luc 293 cells; format: cell-based, human; conditions: 50 and 500 nM, 1 hour pre-treatment
Method: Endogenous protein levels were assessed in both HEK293 cells and the NF-κB/Luc 293 reporter clone.
Antibodies against total and phosphorylated forms of IκBα were used to determine the endogenous level of each protein and anti-Tubulin antibody was used to confirm equal loading of protein.

p21 and p27 = assay: Western blot of cell cycle regulatory proteins p21 and p27; format: cell-based, human; conditions: various concentrations, preliminary
Excerpt: The ubiquitin-proteasome pathway is an essential proteolytic system involved in cell cycle control by regulating the degradation of cyclins and cyclin-dependent kinase (Cdk) inhibitors such as p21 and p27. Pagano, et al., Science 269:682 (1995), Kisselev, et al., Chem Biol 8:739 (2001), King, et al., Science 274:1652 (1996). Furthermore, p21 and p27 protein levels are increased in the presence of proteasome inhibitors. Fukuchi, et al., Biochim Biophys Acta 1451:206 (1999), Takeuchi, et al, Jpn J Cancer Res 93:774 (2002).
The Western blots presented in FIG. 33 were reprobed using antibodies against p21 and p27 to determine the endogenous level of each protein and anti-Tubulin antibody was used to confirm equal loading of protein.

PARP = PARP cleavage in Jurkat cells (western blot); format: cell-based, human; conditions: 100 nM Salinosporamide A or 350 nM Staurosporine
tumor cell lines = assay: Growth inhibition / cytotoxicity, summary over tumor cell lines; format: cell-based
[2] = test system: MM.1R and Doxorubicin-resistant Dox-40 cell lines
HL-60 = assay: cells; conditions: Homo sapiens, HL-60, 48 h
RAW264.7 cells = assay: cells; conditions: Mus musculus
PC-3 = assay: Cell growth inhibition assay (resazurin, 48 h)
[3] = test system: 60 human tumor cell lines; assay: NCI screening panel of 60 human tumor cell lines (sulforhodamine B)

Sequence of CYP2C9 (P11712 whole entry): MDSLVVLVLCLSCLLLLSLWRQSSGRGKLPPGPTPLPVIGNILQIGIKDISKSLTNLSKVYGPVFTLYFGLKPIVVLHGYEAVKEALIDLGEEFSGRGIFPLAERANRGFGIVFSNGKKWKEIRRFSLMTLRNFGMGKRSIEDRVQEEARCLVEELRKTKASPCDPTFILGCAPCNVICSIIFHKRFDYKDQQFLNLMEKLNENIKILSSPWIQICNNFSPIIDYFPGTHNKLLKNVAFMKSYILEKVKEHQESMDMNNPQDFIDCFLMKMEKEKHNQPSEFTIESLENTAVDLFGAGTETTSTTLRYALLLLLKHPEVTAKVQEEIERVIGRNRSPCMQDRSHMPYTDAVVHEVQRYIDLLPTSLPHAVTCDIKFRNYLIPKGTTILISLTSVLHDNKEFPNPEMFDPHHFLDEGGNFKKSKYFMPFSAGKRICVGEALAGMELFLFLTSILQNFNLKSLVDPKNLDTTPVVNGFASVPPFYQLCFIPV
Sequence of CYP2C19 (P33261 whole entry): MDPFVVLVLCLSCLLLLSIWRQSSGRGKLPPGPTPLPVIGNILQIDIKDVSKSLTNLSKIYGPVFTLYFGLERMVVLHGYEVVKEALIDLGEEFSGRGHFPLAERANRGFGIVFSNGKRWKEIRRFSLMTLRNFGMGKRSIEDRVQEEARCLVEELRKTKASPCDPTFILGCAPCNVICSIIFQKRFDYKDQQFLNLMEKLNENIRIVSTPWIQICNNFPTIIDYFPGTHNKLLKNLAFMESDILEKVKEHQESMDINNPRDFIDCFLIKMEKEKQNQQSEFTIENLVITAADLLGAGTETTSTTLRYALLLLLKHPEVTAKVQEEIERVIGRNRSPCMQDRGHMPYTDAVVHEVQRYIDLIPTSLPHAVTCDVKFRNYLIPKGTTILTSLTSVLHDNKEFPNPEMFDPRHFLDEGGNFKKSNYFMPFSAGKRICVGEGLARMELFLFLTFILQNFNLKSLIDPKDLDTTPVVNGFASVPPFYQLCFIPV
Sequence of CYP1A2 (P05177 whole entry): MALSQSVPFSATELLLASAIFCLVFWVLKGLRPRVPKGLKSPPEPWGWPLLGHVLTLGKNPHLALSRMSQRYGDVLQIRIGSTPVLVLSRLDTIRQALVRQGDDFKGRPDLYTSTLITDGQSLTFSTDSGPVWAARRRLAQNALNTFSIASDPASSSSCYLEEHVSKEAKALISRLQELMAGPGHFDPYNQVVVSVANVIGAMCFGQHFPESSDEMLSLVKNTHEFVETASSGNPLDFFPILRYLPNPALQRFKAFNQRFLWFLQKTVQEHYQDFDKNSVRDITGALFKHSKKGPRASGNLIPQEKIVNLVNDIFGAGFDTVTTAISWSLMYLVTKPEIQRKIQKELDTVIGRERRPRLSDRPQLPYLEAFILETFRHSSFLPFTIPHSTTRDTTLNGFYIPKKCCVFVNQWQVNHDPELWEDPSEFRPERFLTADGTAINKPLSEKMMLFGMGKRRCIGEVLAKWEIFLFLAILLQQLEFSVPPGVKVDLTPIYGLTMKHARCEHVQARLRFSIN
Sequence of CYP3A4 (P08684 whole entry): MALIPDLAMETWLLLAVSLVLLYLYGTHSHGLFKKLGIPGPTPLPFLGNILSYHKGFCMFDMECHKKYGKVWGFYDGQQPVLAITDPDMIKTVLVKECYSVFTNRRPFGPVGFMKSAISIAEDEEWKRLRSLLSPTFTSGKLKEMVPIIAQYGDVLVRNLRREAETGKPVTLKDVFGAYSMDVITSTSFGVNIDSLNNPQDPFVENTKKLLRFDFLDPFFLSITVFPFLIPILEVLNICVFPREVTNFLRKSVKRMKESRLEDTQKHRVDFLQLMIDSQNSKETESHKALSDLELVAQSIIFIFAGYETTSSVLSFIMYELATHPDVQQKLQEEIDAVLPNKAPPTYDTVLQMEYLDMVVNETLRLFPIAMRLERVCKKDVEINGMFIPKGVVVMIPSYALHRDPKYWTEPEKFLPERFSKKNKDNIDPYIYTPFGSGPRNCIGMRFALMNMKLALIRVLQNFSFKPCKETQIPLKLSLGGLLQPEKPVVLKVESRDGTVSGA
Sequence of CYP2D6 (P10635 whole entry): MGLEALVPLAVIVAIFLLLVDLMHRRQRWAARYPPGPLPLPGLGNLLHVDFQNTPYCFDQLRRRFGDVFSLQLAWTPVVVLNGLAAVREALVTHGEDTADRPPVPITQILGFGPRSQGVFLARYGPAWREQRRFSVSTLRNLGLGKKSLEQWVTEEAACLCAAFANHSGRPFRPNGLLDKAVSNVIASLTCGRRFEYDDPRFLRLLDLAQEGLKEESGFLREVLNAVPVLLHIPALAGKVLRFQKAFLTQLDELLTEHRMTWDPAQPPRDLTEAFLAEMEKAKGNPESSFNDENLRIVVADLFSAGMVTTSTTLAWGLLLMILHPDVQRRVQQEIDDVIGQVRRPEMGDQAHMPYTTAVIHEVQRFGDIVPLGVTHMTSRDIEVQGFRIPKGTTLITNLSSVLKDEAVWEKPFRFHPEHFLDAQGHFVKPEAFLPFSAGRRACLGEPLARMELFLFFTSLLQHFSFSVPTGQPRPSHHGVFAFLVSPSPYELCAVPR

## C[C@@]12OC(=O)[C@]1([C@@H](O)[C@@H]1C=CCCC1)NC(=O)[C@@H]2CCCl [Formula II-16, Salinosporamide A]
HEK293
  EC50: 0.047 µM
HT-29
  EC50: 0.04 ± 0.026 µM
HT-29; Homo sapiens
  EC50: 0.047 µM
MIA PaCa-2
  EC50: 0.046 µM
RPMI 8226; Homo sapiens, RPMI-8226, 48 h, RPMI 8226, 48 h
  EC50: 0.0086 ± 0.0019 µM
RPMI 8226; listed as II-16
  % cytotoxicity: 94 ± 0%
RPMI 8226; listed as Salinosporamide A
  % cytotoxicity: 94 ± 1%
CCD-27sk
  EC50: 0.196 µM
MES-SA
  % cytotoxicity: 94 ± 1%
MES-SA; Homo sapiens, 48 h
  EC50: 0.02 ± 0.005 µM
MES-SA/Dx5; Homo sapiens, MES-SA/Dx5, 48 h
  EC50: 0.023 ± 0.001 µM
MES-SA/Dx5; MES-SA/Dx5
  % cytotoxicity: 92 ± 2%
[1]
  EC50: ~0.003 µM and ~0.004 µM
CYP1A2
  inhibition of CYP1A2: 3%
CYP2C19
  inhibition of CYP2C19: 22%
CYP2C9
  inhibition of CYP2C9: 6%
CYP2D6
  inhibition of CYP2D6: 19%
CYP3A4
  inhibition of CYP3A4: 6%
IκBα
  effect on total IκBα and phospho-IκBα upon TNF-α stimulation: reduced the degradation of total IκBα but also retained the phospho-IκBα level
p21 and p27
  p21 and p27 protein levels: elevated
PARP
  cleavage of PARP: cleavage of PARP within the Jurkat cells in a time-dependent fashion
Tumor cell lines; RPMI 8226, PC-3, DU 145, 48 hour, read-out: EC50 values against RPMI 8226 and the prostate cell lines, range
  EC50: 0.01 to 0.037 µM
Tumor cell lines; read-out: EC50 values for cytotoxicity, range
  EC50: 0.01 to 0.2 µM
[2]
  activity against drug resistant multiple myeloma: active against MM.1R and Doxorubicin-resistant Dox-40 cell lines
HL-60
  EC50: 0.027 µM
RAW264.7 cells; RAW264.7, read-out: EC50, inhibition of LeTx-mediated cytotoxicity
  EC50: < 0.004 µM
RAW264.7 cells; RAW264.7, read-out: cell-viability, compound + LeTx
  viability at […]: 82%
PC-3; PC-3
  % cytotoxicity: 88% and 89%
PC-3; PC-3, 48 h
  EC50: 0.064 ± 0.026 µM
[3]; 60 cell, 48 h, read-out: mean GI50
  GI50: < 0.01 µM
[3]; SK-MEL-28, read-out: LC50
  CC50: < 0.01 µM
[3]; read-out: LC50
  CC50: < 0.01 µM
